Molecular target: T1, selenophosphate synthetase (SPS) (Escherichia coli, UniProt P16456, E197D)
T1 construct: gene selD; full-size selD from E. coli BL21-Gold (DE3), recombinant
Assay: competitive displacement of TNP-ATP (fluorescence)
Format: binding

T1 sequence (P16456 whole entry E197D): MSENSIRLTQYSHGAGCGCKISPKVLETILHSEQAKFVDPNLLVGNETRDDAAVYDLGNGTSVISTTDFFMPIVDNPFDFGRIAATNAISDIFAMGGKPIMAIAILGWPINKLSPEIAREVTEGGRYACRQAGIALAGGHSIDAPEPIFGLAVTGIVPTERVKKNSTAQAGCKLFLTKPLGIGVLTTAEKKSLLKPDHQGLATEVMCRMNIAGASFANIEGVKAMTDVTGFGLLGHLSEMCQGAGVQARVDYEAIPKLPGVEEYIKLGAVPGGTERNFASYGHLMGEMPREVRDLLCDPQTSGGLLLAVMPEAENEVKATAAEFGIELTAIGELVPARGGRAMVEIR

For `Nc1ncnc2c1ncn2[C@@H]1O[C@H](COP(=O)(O)OP(=O)(O)OP(=O)(O)O)[C@@H](O)[C@H]1O` [ATP], the EC50 was 450 µM.

Reference: paper PMC3956282, “Binding Stoichiometry of a Recombinant Selenophosphate Synthetase with One Synonymic Substitution E197D to a Fluorescent Nucleotide Analog of ATP, TNP-ATP” (Journal of Amino Acids, 2013)
